Results on 47 compounds are retold here after patent publication US20200338084A1, “INHIBITORS OF LOW MOLECULAR WEIGHT PROTEIN TYROSINE PHOSPHATASE (LMPTP) AND USES THEREOF” (Sanford Burnham Prebys Medical Discovery Institute, priority 2018, published 2020).

pIC50: −log10 of the molar value.

In the assay the target is T1, human LMPTP-A (Homo sapiens, UniProt P24666).
T1 sequence (P24666 1-158): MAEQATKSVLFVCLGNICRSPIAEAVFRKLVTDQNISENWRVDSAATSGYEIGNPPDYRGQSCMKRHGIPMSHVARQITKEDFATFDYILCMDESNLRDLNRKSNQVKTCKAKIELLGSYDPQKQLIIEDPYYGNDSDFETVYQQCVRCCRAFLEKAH
Nature of the assay: Enzyme Assay of Inhibition of LMPTP-A. Type of assay: biochemical. The note with it: phosphatase assay, OMFP or pNPP substrate, 50 mM Bis-Tris pH 6.0, 37° C. The procedure:
Phosphatase assays were performed in buffer containing 50 mM Bis-Tris, pH 6.0, 1 mM DTT and 0.01% Triton X-100 at 37° C. For assays conducted with 3-O-methylfluorescein phosphate (OMFP) as substrate, fluorescence was monitored continuously at λex=485 and λem=525 nm. For assays conducted with para-nitrophenylphosphate (pNPP) as substrate, the reaction was stopped by addition of 2× reaction volume of 1 M NaOH, and absorbance was measured at 405 nm. IC50 values of compounds disclosed herein were determined from plots of inhibitor concentration versus percentage of enzyme activity. For inhibitor selectivity assays, each PTP was incubated with either 0.4 mM OMFP or 5 mM pNPP in the presence of 40 μM compound or DMSO. […] For the inhibitor reversibility assay, 50 nM human LMPTP-A was pre-incubated with 10 μM of compound disclosed herein or DMSO for 5 min. The enzyme was diluted 100× in phosphatase assay buffer containing 0.4 mM OMFP and fluorescence was measured at the indicated time points.

For orientation: pIC50 means the negative decadic logarithm of the IC50, by convention in mol/L. Consider `Cc1ccc(Cn2cnc(N)c3ncnc2-3)cc1` [3-(4-Methyl-benzyl)-3H-purin-6-ylamine], for which the pIC50 is not above 4.70.

Turning to `Nc1ncn(Cc2ccc(F)cc2)c2ncnc1-2` [3-(4-fluorobenzyl)-3H-purin-6-amine], the pIC50 is not above 4.70. The value for `Nc1ncn(Cc2cccc(O)c2)c2ncnc1-2` [3-(6-Amino-purin-3-ylmethyl)-phenol] was 4.70 to 6.00; that for `Cc1cccc(Cn2cnc(N)c3ncnc2-3)n1` [3-(6-Methyl-pyridin-2-ylmethyl)-3H-purin-6-ylamine] was not above 4.70. The value for `Cn1ccnc1Cn1cnc(N)c2ncnc1-2` [3-((1-methyl-1H-imidazol-2-yl)methyl)-3H-purin-6-amine] was not above 4.70; that for `Nc1ncn(Cc2nnn[nH]2)c2ncnc1-2` [3-((1H-tetrazol-5-yl)methyl)-3H-purin-6-amine] was not above 4.70; that for `Cc1noc(C)c1Cn1cnc(N)c2ncnc1-2` [3-((3,5-dimethylisoxazol-4-yl)methyl)-3H-purin-6-amine] was 4.70 to 6.00.

In turn, `CN(C)C(=O)c1cccc(Nc2ncn(Cc3c(Cl)cccc3Cl)c3ncnc2-3)c1` [3-((3-(2,6-dichlorobenzyl)-3H-purin-6-yl)amino)-N,N-dimethylbenzamide] had a pIC50 of 4.70 to 6.00. The value for `Nc1ncn(Cc2ccc(Cl)s2)c2ncnc1-2` [3-((5-chlorothiophen-2-yl)methyl)-3H-purin-6-amine] was 4.70 to 6.00; that for `N#Cc1cccc(Cn2cnc(N)c3ncnc2-3)c1` [3-((6-amino-3H-purin-3-yl)methyl)benzonitrile] was 4.70 to 6.00; that for `Nc1ncn(Cc2nc3ccccc3s2)c2ncnc1-2` [3-(benzo[d]thiazol-2-ylmethyl)-3H-purin-6-amine] was 4.70 to 6.00. The value for `Nc1ncn(Cc2ccc3ccccc3n2)c2ncnc1-2` [3-(quinolin-2-ylmethyl)-3H-purin-6-amine] was 4.70 to 6.00; that for `N#Cc1cccc(Nc2ncn(Cc3c(Cl)cccc3Cl)c3ncnc2-3)c1` [3-({3-[(2,6-Dichlorophenyl)methyl]-3-hydropurin-6-yl}amino)benzenecarbonitrile] was not above 4.70; that for `O=C(O)c1cccc(Nc2ncn(Cc3c(Cl)cccc3Cl)c3ncnc2-3)c1` [3-({3-[(2,6-Dichlorophenyl)methyl]-3-hydropurin-6-yl}amino)benzoic acid] was 4.70 to 6.00. Under `Oc1cccc(Nc2ncn(Cc3c(Cl)cccc3Cl)c3ncnc2-3)c1` [3-({3-[(2,6-Dichlorophenyl)methyl]-3-hydropurin-6-yl}amino)phenol] stands 4.70 to 6.00; under `Nc1ncn(Cc2c(Cl)cccc2Cl)c2ncnc1-2` [3-<2,6-Dichloro-benzyl)-3H-purin-6-ylamine], not below 6.00. `Nc1ncn(Cc2ccccn2)c2ncnc1-2` [3-Pyridin-2-ylmethyl-3H-purin-6-ylamine]: the pIC50 is 4.70 to 6.00. With `Nc1ncn(Cc2cccnc2)c2ncnc1-2` [3-Pyridin-3-ylmethyl-3H-purin-6-ylamine], the pIC50 was 4.70 to 6.00.

Consider `Nc1ncn(Cc2ccncc2)c2ncnc1-2` [3-Pyridin-4-ylmethyl-3H-purin-6-ylamine], for which the pIC50 was 4.70 to 6.00. The value for `Nc1ncn(Cc2cscn2)c2ncnc1-2` [3-Thiazol-4-ylmethyl-3H-purin-6-ylaniine] was not above 4.70; that for `Nc1ncn(Cc2ccsc2)c2ncnc1-2` [3-Thiophen-3-ylmethyl-3H-purin-6-ylamine] was not above 4.70; that for `Nc1ncn(Cc2c(Cl)ccnc2Cl)c2ncnc1-2` [3-[(2,4-dichloro-3-pyridyl)methyl]-3-hydropurine-6-ylamine] was not below 6.00. Under `Nc1ncn(Cc2c(Cl)cccc2Cl)c2nc(-c3cncs3)nc1-2` [3-[(2,6-Dichlorophenyl)methyl]-8-(1,3-thiazol-5-yl)-3-hydropurine-6-ylamine] stands not below 6.00. Under `CN1CCC(c2nc3c(N)ncn(Cc4c(Cl)cccc4Cl)c-3n2)CC1` [3-[(2,6-Dichlorophenyl)methyl]-8-(1-methyl(4-piperidyl))-3-hydropurine-6-ylamine] stands not below 6.00. For `Cn1cc(-c2nc3c(N)ncn(Cc4c(Cl)cccc4Cl)c-3n2)cn1` [3-[(2,6-Dichlorophenyl)methyl]-8-(1-methylpyrazol-4-yl)-3-hydropurine-6-ylamine], the pIC50 is not below 6.00. Under `Cn1nccc1-c1nc2c(N)ncn(Cc3c(Cl)cccc3Cl)c-2n1` [3-[(2,6-Dichlorophenyl)methyl]-8-(1-methylpyrazol-5-yl)-3-hydropurine-6-ylamine] stands not below 6.00; under `Nc1ncn(Cc2c(Cl)cccc2Cl)c2nc(-c3ccccc3Cl)nc1-2` [3-[(2,6-Dichlorophenyl)methyl]-8-(2-chlorophenyl)-3-hydropurine-6-ylamine], not below 6.00. The value for `Nc1ncn(Cc2c(Cl)cccc2Cl)c2nc(-c3ccccc3F)nc1-2` [3-[(2,6-Dichlorophenyl)methyl]-8-(2-fluorophenyl)-3-hydropurine-6-ylamine] was not below 6.00; that for `Nc1ncn(Cc2c(Cl)cccc2Cl)c2nc(-c3ccco3)nc1-2` [3-[(2,6-Dichlorophenyl)methyl]-8-(2-furyl)-3-hydropurine-6-ylamine] was not below 6.00; that for `COc1ccccc1-c1nc2c(N)ncn(Cc3c(Cl)cccc3Cl)c-2n1` [3-[(2,6-Dichlorophenyl)methyl]-8-(2-methoxyphenyl)-3-hydropurine-6-ylamine] was not below 6.00. The compound `Cc1ccccc1-c1nc2c(N)ncn(Cc3c(Cl)cccc3Cl)c-2n1` [3-[(2,6-Dichlorophenyl)methyl]-8-(2-methylphenyl)-3-hydropurine-6-ylamine] had a pIC50 not below 6.00. The value for `Nc1ncn(Cc2c(Cl)cccc2Cl)c2nc(CCc3ccccc3)nc1-2` [3-[(2,6-Dichlorophenyl)methyl]-8-(2-phenylethyl)-3-hydropurine-6-ylamine] was not below 6.00. Under `Nc1ncn(Cc2c(Cl)cccc2Cl)c2nc(-c3cccs3)nc1-2` [3-[(2,6-Dichlorophenyl)methyl]-8-(2-thienyl)-3-hydropurine-6-ylamine] stands not below 6.00. Regarding `Nc1ncn(Cc2c(Cl)cccc2Cl)c2nc(-c3cccc(Cl)c3)nc1-2` [3-[(2,6-Dichlorophenyl)methyl]-8-(3-chlorophenyl)-3-hydropurine-6-ylamine], the pIC50 is not below 6.00. Under `Nc1ncn(Cc2c(Cl)cccc2Cl)c2nc(-c3cccc(F)c3)nc1-2` [3-[(2,6-Dichlorophenyl)methyl]-8-(3-fluorophenyl)-3-hydropurine-6-ylamine] stands not below 6.00; under `Nc1ncn(Cc2c(Cl)cccc2Cl)c2nc(-c3ccoc3)nc1-2` [3-[(2,6-Dichlorophenyl)methyl]-8-(3-furyl)-3-hydropurine-6-ylamine], not below 6.00; under `COc1cccc(-c2nc3c(N)ncn(Cc4c(Cl)cccc4Cl)c-3n2)c1` [3-[(2,6-Dichlorophenyl)methyl]-8-(3-methoxyphenyl)-3-hydropurine-6-ylamine], not below 6.00. In turn, `Cc1cccc(-c2nc3c(N)ncn(Cc4c(Cl)cccc4Cl)c-3n2)c1` [3-[(2,6-Dichlorophenyl)methyl]-8-(3-methylphenyl)-3-hydropurine-6-ylamine] gave a pIC50 not below 6.00. Compound `Nc1ncn(Cc2c(Cl)cccc2Cl)c2nc(-c3cccnc3)nc1-2` [3-[(2,6-Dichlorophenyl)methyl]-8-(3-pyridyl)-3-hydropurine-6-ylamine] showed a pIC50 not below 6.00. The value for `Nc1ncn(Cc2c(Cl)cccc2Cl)c2nc(-c3ccsc3)nc1-2` [3-[(2,6-Dichlorophenyl)methyl]-8-(3-thienyl)-3-hydropurine-6-ylamine] was not below 6.00. The value for `Nc1ncn(Cc2c(Cl)cccc2Cl)c2nc(-c3cnccc3Cl)nc1-2` [3-[(2,6-Dichlorophenyl)methyl]-8-(4-chloro(3-pyridyl))-3-hydropurine-6-ylamine] was not below 6.00.

In turn, `Nc1ncn(Cc2c(Cl)cccc2Cl)c2nc(-c3ccc(Cl)cc3)nc1-2` [3-[(2,6-Dichlorophenyl)methyl]-8-(4-chlorophenyl)-3-hydropurine-6-ylamine] showed a pIC50 not below 6.00.

`Nc1ncn(Cc2c(Cl)cccc2Cl)c2nc(-c3ccc(F)cc3)nc1-2` [3-[(2,6-Dichlorophenyl)methyl]-8-(4-fluorophenyl)-3-hydropurine-6-ylamine] showed a pIC50 not below 6.00. The value for `COc1ccncc1-c1nc2c(N)ncn(Cc3c(Cl)cccc3Cl)c-2n1` [3-[(2,6-Dichlorophenyl)methyl]-8-(4-methoxy(3-pyridyl))-3-hydropurine-6-ylamine] was not below 6.00; that for `COc1ccc(-c2nc3c(N)ncn(Cc4c(Cl)cccc4Cl)c-3n2)cc1` [3-[(2,6-Dichlorophenyl)methyl]-8-(4-methoxyphenyl)-3-hydropurine-6-ylamine] was not below 6.00; that for `Cc1csc(-c2nc3c(N)ncn(Cc4c(Cl)cccc4Cl)c-3n2)c1` [3-[(2,6-Dichlorophenyl)methyl]-8-(4-methyl(2-thienyl))-3-hydropurine-6-ylamine] was not above 4.70.

`Cc1ccncc1-c1nc2c(N)ncn(Cc3c(Cl)cccc3Cl)c-2n1` [3-[(2,6-Dichlorophenyl)methyl]-8-(4-methyl(3-pyridyl))-3-hydropurine-6-ylamine] gave a pIC50 not below 6.00.
